Results from paper PMC9674596, “Origin of acetylcholine antagonism in ELIC, a bacterial pentameric ligand-gated ion channel” (Communications Biology, 2022).
“Also recorded” adds a separate entry of the source.

Assays:
wild-type ELIC [1] = molecular target: T1, wild-type ELIC (Dickeya chrysanthemi, UniProt P0C7B7, INS163G); experiment: Two-electrode voltage clamp, whole-cell currents of wild-type ELIC expressed in Xenopus laevis oocytes; format: cell-based, Erwinia chrysanthemi; conditions: WT ELIC, ACh inhibition of GABA-activated current
T1 construct: expressed in transfected cells; host or cells: Xenopus laevis oocytes injected with cRNA from ELIC-pTLN

ELIC A75D/F133W = molecular target: T2, ELIC A75D/F133W (Dickeya chrysanthemi, UniProt P0C7B7, A75D/F133W/INS163G); experiment: Two-electrode voltage clamp, A75D/F133W double mutant ELIC expressed in Xenopus laevis oocytes; format: cell-based, Erwinia chrysanthemi; conditions: for Activation by amine (whole-cell response): 25 mM amine; for Activation by amine (whole-cell response) / Effect of co-applied ligand on cysteamine-activated current: cysteamine at its EC50; for Effect of co-applied ligand on cysteamine-activated current: 25 mM ligand, 40 s pulse; for Potentiation of the cysteamine response on co-application: 50 mM co-applied in the middle of a cysteamine pulse at EC50 (6.9 mM); for Response when applied by themselves: 50 mM applied for 40 s without cysteamine
T2 construct: expressed in transfected cells; host or cells: Xenopus laevis oocytes injected with cRNA; DNA construct synthesised by Twist Bioscience
Procedure: (§1) Stage V-VI Xenopus laevis oocytes were isolated[72] and deflocculated enzymatically in ND96 buffer without Ca^2+ (96 mM NaCl, 2 mM KCl, 1 mM MgCl2, 2 mM pyruvate, 5 mM HEPES, pH 7.4), but supplemented with 1 mg/mL collagenase B and 1 mg/mL trypsin inhibitor, for 2 h at room temperature under constant stirring. The deflocculation buffer was then gradually removed by washing the oocytes in ND96 buffer (96 mM NaCl, 2 mM KCl, 1 mM MgCl2, 1 mM CaCl2, 2 mM pyruvate, 5 mM HEPES, pH 7.4) for several iterations. The oocytes were then allowed to stir for an additional hour at room temperature under constant stirring with the buffer being periodically replaced until clear. To obtain optimal receptor expression, individually selected and healthy oocytes were injected with 0.2 ng cRNA for wild-type ELIC and 5 ng cRNA for mutants. Subsequently, oocytes were incubated for one day at 16 °C in ND96^+ buffer (96 mM NaCl, 2 mM KCl, 1 mM MgCl2, 1 mM CaCl2, 2 mM pyruvate, and 5 mM HEPES at pH 7.6). After expression, injected oocytes were placed in a RC-1Z oocyte chamber (Harvard Apparatus; Hamden, CT) containing buffer (pH 7.4) composed of 150 mM NaCl, 0.5 mM BaCl2, 10 mM HEPES, and 1 mM dithiothreitol or 1 µM atropine if cysteamine, or ACh, was used in the experiment, respectively. The presence of the reducing agent, dithiothreitol, ensures that the sulfhydryl group of cysteamine remains reduced.
(§2) Once in the oocyte chamber, whole-cell currents were recorded using a two-electrode voltage-clamp apparatus (OC-725C oocyte clamp; Harvard Apparatus), with a buffer flow rate of 5–10 mL min^−1. Currents in response to various additions of cysteamine and/or ACh, were measured with the transmembrane voltage clamped at −60 mV. Dose response curves for each wild-type and mutant ELIC were acquired from at least five oocytes in two different batches.
(§3) For identifying the half maximal effective concentration (EC50) and apparent Hill coefficient (nH) of cysteamine, dose response curves were created by taking the magnitude of each cysteamine-activated peak current (I) and normalizing this value to the maximal peak current in the presence of excess agonist (Imax). The log (base 10) cysteamine concentration in molar was then plotted on the x-axis against the fractional response (I/Imax) on the y-axis. The data was fitted using nonlinear regression with a variable slope sigmoidal dose response (Eq. 1, below) in GraphPad Prism (v.8.0.0).1 y=1/1+10^nH^LogEC50−X
(§4) Individual EC50 and Hill coefficients were averaged for each oocyte to derive a mean ± standard deviation. For identifying a half maximal inhibitory concentration (IC50) and Hill coefficient of ACh, a concentration of cysteamine corresponding to its EC50 was used in the presence of increasing concentrations of ACh. Peak currents elicited from cysteamine with ACh (I) were normalized to the initial cysteamine peak current in the absence of ACh (Io). The log (base 10) ACh concentration was then plotted on the x-axis against the fractional response (I/Io) on the y-axis. Subsequent steps were the same as above for deriving a cysteamine EC50 and Hill coefficient. The individual IC50 and Hill coefficients were averaged for each oocyte to derive a mean ± one standard deviation. Lastly, to identify four normalized response values, cysteamine at the 10% maximal effective concentration (EC10), 20% maximal effective concentration (EC20), EC50 and 90% maximal effective concentration (EC90), was applied in the presence and absence of 25 mM ACh. The cysteamine-activated peak current with 25 mM ACh, was normalized to the cysteamine-activated peak current without ACh.

wild-type ELIC [2] = molecular target: T1, wild-type ELIC; conditions: cited from earlier work
wild-type ELIC [3] = molecular target: T1, wild-type ELIC; experiment: Two-electrode voltage clamp, whole-cell currents of wild-type ELIC expressed in Xenopus laevis oocytes; format: cell-based, Erwinia chrysanthemi; conditions: for Activation by amine (whole-cell response): 25 mM amine
Procedure: as §1, §2, §3
as §4, with “[…] […]” for “For identifying a half maximal inhibitory concentration (IC50) and Hill coefficient of ACh, a concentration of cysteamine corresponding to its EC50 was used in the presence of increasing concentrations of ACh. Peak currents elicited from cysteamine with ACh (I) were normalized to the initial cysteamine peak current in the absence of ACh (Io).”

ELIC L240A (L9′A) = molecular target: T3, ELIC L240A (L9′A) (Dickeya chrysanthemi, UniProt P0C7B7, L239A); experiment: Two-electrode voltage clamp, L240A (L9′A) mutant ELIC expressed in Xenopus laevis oocytes; format: cell-based, Erwinia chrysanthemi; conditions: L9′A; 30 s applications of ACh 0.5 to 50 mM, then 5 mM cysteamine
T3 construct: expressed in transfected cells; host or cells: Xenopus laevis oocytes injected with cRNA from ELIC-pTLN
Procedure: as §1, §2, §3
(§5) Individual EC50 and Hill coefficients were averaged for each oocyte to derive a mean ± standard deviation. For identifying a half maximal inhibitory concentration (IC50) and Hill coefficient of ACh, a concentration of cysteamine corresponding to its EC50 was used in the presence of increasing concentrations of ACh. […]

ELIC I79Y = molecular target: T4, ELIC I79Y (Dickeya chrysanthemi, UniProt P0C7B7, I79Y/INS163G); experiment: Two-electrode voltage clamp, I79Y mutant ELIC expressed in Xenopus laevis oocytes; format: cell-based, Erwinia chrysanthemi; conditions: ACh 0.5 mM to 50 mM, followed by 5 mM cysteamine
T4 construct: expressed in transfected cells; host or cells: Xenopus laevis oocytes injected with cRNA from ELIC-pTLN
Procedure: as §1, §2, §3
as §4, with “The cysteamine-activated peak current with 25 mM ACh, was normalized to the cysteamine-activated peak current without ACh.” left out

ELIC F133W = ELIC F133W (Dickeya chrysanthemi, UniProt P0C7B7, F133W); experiment: cell-based; format: cell-based, Erwinia chrysanthemi; conditions: F133W
Procedure: as §1, §2, §3, §4

ELIC Y38W [4] = experiment: Two-electrode voltage clamp, Y38W mutant ELIC expressed in Xenopus laevis oocytes; format: cell-based, Erwinia chrysanthemi; conditions: Y38W
Procedure: as §1, §2, §3, §4

ELIC Y38W [5] = molecular target: ELIC Y38W (Dickeya chrysanthemi, UniProt P0C7B7, Y38W); experiment: as above; format: cell-based, Erwinia chrysanthemi; conditions: Y38W
Procedure: as §1, §2, §3, §4

[6] = molecular target: T5, ELIC L240A (L9′A) + A75D/F133W (Dickeya chrysanthemi, UniProt P0C7B7, A75D/F133W/L239A); experiment: Two-electrode voltage clamp, L9′A + A75D/F133W triple mutant ELIC expressed in Xenopus laevis oocytes; format: cell-based, Erwinia chrysanthemi; conditions: L9′A + A75D/F133W; 30 s applications of ACh 0.5 to 50 mM, then 5 mM cysteamine
T5 construct: expressed in transfected cells; host or cells: Xenopus laevis oocytes injected with cRNA
Procedure: as §1, §2, §3, §5

ELIC A75D = molecular target: T6, ELIC A75D (Dickeya chrysanthemi, UniProt P0C7B7, A75D/INS163G); experiment: Two-electrode voltage clamp, A75D mutant ELIC expressed in Xenopus laevis oocytes; format: cell-based, Erwinia chrysanthemi; conditions: A75D
T6 construct: expressed in transfected cells; host or cells: Xenopus laevis oocytes injected with cRNA from ELIC-pTLN

[7] = WT, 25 mM ligand, 40 s pulse, cysteamine at its EC50
[8] = ACh inhibition, cysteamine at its EC50
[9] = cysteamine at EC10, EC20, EC50, EC90
[10] = ACh 0.5 mM to 50 mM, followed by 5 mM cysteamine

CC(=O)OCC[N+](C)(C)C [ACh, acetylcholine]
Inhibition Hill coefficient (wild-type ELIC [1]): –1.0 ± 0.3 | Activation by amine (whole-cell response) (ELIC A75D/F133W): fail to activate | Effect of co-applied ligand on cysteamine-activated current (ELIC A75D/F133W): same small degree of potentiation | Potentiation of the cysteamine response on co-application (ELIC A75D/F133W): potentiation | Effect of high ACh concentrations on cysteamine peak current (ELIC A75D/F133W; ACh 50–100 mM, cysteamine at EC50): appeared to potentiate | ACh inhibition of the cysteamine response (ELIC A75D/F133W; cysteamine fixed at EC50 (6.9 mM), ACh up to 100 mM): failed to inhibit; also recorded: no inhibition by ACh is observed | Action on ELIC (wild-type ELIC [2]): competitive antagonist | Inhibition Hill coefficient (wild-type ELIC [3]; WT ELIC, ACh inhibition of cysteamine-activated current): –1.1 ± 0.1 | Activation by amine (whole-cell response) (wild-type ELIC [3]; WT): fail to activate | Effect of co-applied ligand on cysteamine-activated current (wild-type ELIC [3]; [7]): completely inhibited | Effect of 25 mM ACh on cysteamine-activated currents (wild-type ELIC [3]; WT, cysteamine at EC10, EC20, EC50, EC90): nearly fully inhibited | Peak current on application of ligand alone (wild-type ELIC [3]; WT, ACh 0.5 mM to 50 mM, followed by 5 mM cysteamine): None of the single mutants, nor wild-type ELIC, produced any peak current | Current on application of ligand alone (ELIC L240A (L9′A)): Neither mutant produced observable current; also recorded: No ACh-induced currents were observed | Peak current on application of ligand alone (ELIC I79Y): None of the single mutants, nor wild-type ELIC, produced any peak current | Inhibition Hill coefficient (ELIC F133W; [8]): –1.1 ± 0.1 | Effect of 25 mM ACh on cysteamine-activated currents (ELIC F133W; [9]): increasing the concentration of cysteamine reduced the degree of inhibition | Peak current on application of ligand alone (ELIC F133W; [10]): None of the single mutants, nor wild-type ELIC, produced any peak current | Decrease in ACh IC50 relative to wild-type (ELIC Y38W [4]): 3 fold | Inhibition Hill coefficient (ELIC Y38W [5]; [8]): –1.4 ± 0.1 | Effect of 25 mM ACh on cysteamine-activated currents (ELIC Y38W [5]; [9]): nearly fully inhibited | Peak current on application of ligand alone (ELIC Y38W [5]; [10]): None of the single mutants, nor wild-type ELIC, produced any peak current | Current on application of ligand alone [6]: Neither mutant produced observable current; also recorded: No ACh-induced currents were observed | Increase in ACh IC50 relative to wild-type (ELIC A75D): 7 fold | Inhibition Hill coefficient (ELIC A75D; [8]): –0.7 ± 0.1 | Effect of 25 mM ACh on cysteamine-activated currents (ELIC A75D; [9]): increasing the concentration of cysteamine reduced the degree of inhibition | Peak current on application of ligand alone (ELIC A75D; [10]): None of the single mutants, nor wild-type ELIC, produced any peak current

CC(=O)OCCN(C)C [DMAEA, 2-dimethylaminoethyl acetate]
Effectiveness of activation compared with wild-type ELIC (ELIC A75D/F133W; 25 mM): much less effective than observed with wild-type ELIC | Activation by amine (whole-cell response) (ELIC A75D/F133W): activate | Action on ELIC (wild-type ELIC [2]): able to activate ELIC | Activation by amine (whole-cell response) (wild-type ELIC [3]; WT): activate

NCCCC(=O)O [GABA, γ-aminobutyric acid]
Activation by amine (whole-cell response) (ELIC A75D/F133W): fails to elicit a response | Effect of co-applied ligand on cysteamine-activated current (ELIC A75D/F133W): same small degree of potentiation | Action on ELIC (wild-type ELIC [2]): agonist | Activation Hill coefficient (wild-type ELIC [3]; WT ELIC, agonist activation): 4.0 ± 0.7 | Increase of cysteamine-activated current by co-applied ligand (wild-type ELIC [3]; [7]): roughly 2 fold | Macroscopic activation/deactivation kinetics of agonist-activated currents (wild-type ELIC [3]; WT, compared with cysteamine, agonists at their EC50): slower macroscopic activation/deactivation kinetics

[Cl-].[Na+] [NaCl, sodium chloride]
Response when applied by themselves (ELIC A75D/F133W): negligible response | Potentiation of the cysteamine response on co-application (ELIC A75D/F133W): small, but reproducible, degree of potentiation

CCCN [propylamine]
Action on ELIC (wild-type ELIC [2]): agonists

OC[C@H]1O[C@@](CO)(O[C@H]2O[C@H](CO)[C@@H](O)[C@H](O)[C@H]2O)[C@@H](O)[C@@H]1O [sucrose]
Response when applied by themselves (ELIC A75D/F133W): negligible response | Potentiation of the cysteamine response on co-application (ELIC A75D/F133W): did not potentiate

C[N+](C)(C)C [tetramethylammonium, Tetramethylammonium]
Activation by amine (whole-cell response) (ELIC A75D/F133W): fail to activate | Activation by amine (whole-cell response) (wild-type ELIC [3]; WT): fail to activate

CN(C)C [trimethylamine, Trimethylamine]
Activation by amine (whole-cell response) (ELIC A75D/F133W): activate | Activation by amine (whole-cell response) (wild-type ELIC [3]; WT): activate
